Experimental data: patent US20070208173A1, “CRYSTALLINE HYDRATES OF CEFDINIR CALCIUM SALT” (priority 2006, published 2007)

Tests used:
Type in all cases: physicochemical
Solubility in solvents = assay: Solubility in solvents
Method: (§1) Cefdinir, calcium salt pentahydrate is stable at temperatures between about 25° C. and about 55° C.

Stability to temperature = details: temperatures between about 25° C. and about 55° C.
Method: as §1

[1] = Moisture Sorption/Desorption
Method: as §1

solubility in acetone (Solubility in solvents; acetone): less than 1 mg/mL
solubility in acetonitrile (Solubility in solvents; acetonitrile): less than 1 mg/mL
solubility in dichloromethane (Solubility in solvents; dichloromethane): less than 1 mg/mL
solubility in dimethylsulfoxide (Solubility in solvents; dimethylsulfoxide): greater than 96 mg/mL
solubility in ethanol (Solubility in solvents; ethanol): less than 1 mg/mL
solubility in methanol (Solubility in solvents; methanol): less than 1 mg/mL
solubility in water (Solubility in solvents; water): about 3 mg/mL
stability at temperature (Stability to temperature): stable
Weight ([1]; Time 0.1 min, 24.9 ° C., Rel. Humid. 51.63 (start)): 6.2888 mg
Weight ([1]; Time 32.6 min, 25.0 ° C., Rel. Humid. 4.83): 6.2448 mg
Weight ([1]; Time 48.6 min, 25.0 ° C., Rel. Humid. 14.82): 6.2605 mg
Weight ([1]; Time 61.7 min, 25.0 ° C., Rel. Humid. 24.85): 6.2704 mg
Weight ([1]; Time 74.6 min, 25.0 ° C., Rel. Humid. 34.82): 6.2782 mg
Weight ([1]; Time 87.6 min, 24.9 ° C., Rel. Humid. 44.75): 6.2849 mg
Weight ([1]; Time 100.6 min, 25.0 ° C., Rel. Humid. 54.93): 6.2910 mg
Weight ([1]; Time 113.6 min, 25.0 ° C., Rel. Humid. 64.86): 6.2957 mg
Weight ([1]; Time 125.2 min, 25.0 ° C., Rel. Humid. 74.81): 6.3005 mg
Weight ([1]; Time 138.9 min, 25.0 ° C., Rel. Humid. 84.80): 6.3064 mg
Weight ([1]; Time 220.7 min, 25.1 ° C., Rel. Humid. 94.58): 6.3638 mg
Weight ([1]; Time 241.5 min, 25.1 ° C., Rel. Humid. 85.41 (desorption)): 6.3265 mg
Weight ([1]; Time 256.2 min, 25.1 ° C., Rel. Humid. 75.18 (desorption)): 6.3087 mg
Weight ([1]; Time 271.2 min, 25.1 ° C., Rel. Humid. 65.07 (desorption)): 6.3015 mg
Weight ([1]; Time 284.1 min, 25.1 ° C., Rel. Humid. 55.11 (desorption)): 6.2965 mg
Weight ([1]; Time 300.4 min, 25.1 ° C., Rel. Humid. 45.16 (desorption)): 6.2899 mg
Weight ([1]; Time 313.1 min, 25.1 ° C., Rel. Humid. 35.08 (desorption)): 6.2827 mg
Weight ([1]; Time 326.1 min, 25.0 ° C., Rel. Humid. 25.12 (desorption)): 6.2745 mg
Weight ([1]; Time 338.7 min, 25.0 ° C., Rel. Humid. 15.13 (desorption)): 6.2650 mg
Weight ([1]; Time 360.9 min, 25.0 ° C., Rel. Humid. 5.03 (desorption)): 6.2484 mg
Compound: C=CC1=C(C(=O)[O-])N2C(=O)[C@@H](NC(=O)/C(=N\O)c3csc(N)n3)[C@H]2SC1.C=CC1=C(C(=O)[O-])N2C(=O)[C@@H](NC(=O)/C(=N\O)c3csc(N)n3)[C@H]2SC1.O.O.O.O.O.[Ca+2] (single isomer, unassigned) [Cefdinir, calcium salt pentahydrate, calcium (6R-(6α,7β(Z)))-7-(((2-amino-1,3-thiazol-4-yl)(hydroxyimino)acetyl)amino)-3-ethenyl-8-oxo-5-thia-1-azabicyclo[4.2.0]oct-2-ene-2-carboxylate (cefdinir, calcium salt, syn-isomer) pentahydrate]
